Laboratory results as given in patent US12577234B2, “Antagonists of the muscarinic acetylcholine receptor M4” (Vanderbilt University, priority 2017, dated 2026).

Target: T1, human mAChR M4 (Homo sapiens, UniProt P08173)
T1 construct: expressed in transfected cells; host or cells: CHO-K1 (ATCC), stably co-expressing chimeric G protein Gqi5
T1 sequence (P08173 1-479): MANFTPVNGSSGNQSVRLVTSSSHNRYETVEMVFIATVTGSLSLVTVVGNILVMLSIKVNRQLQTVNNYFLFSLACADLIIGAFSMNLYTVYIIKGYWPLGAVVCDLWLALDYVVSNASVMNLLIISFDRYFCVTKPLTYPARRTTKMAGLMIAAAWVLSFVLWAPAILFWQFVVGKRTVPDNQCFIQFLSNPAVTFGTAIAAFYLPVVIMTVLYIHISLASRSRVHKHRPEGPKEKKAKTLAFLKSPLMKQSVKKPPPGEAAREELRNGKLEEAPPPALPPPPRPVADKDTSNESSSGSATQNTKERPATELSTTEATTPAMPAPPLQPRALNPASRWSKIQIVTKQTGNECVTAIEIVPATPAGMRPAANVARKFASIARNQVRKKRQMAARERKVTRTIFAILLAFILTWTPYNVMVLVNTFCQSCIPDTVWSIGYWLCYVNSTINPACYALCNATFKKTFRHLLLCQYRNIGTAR
Assay: mAChR M4 cell-based functional assay (calcium mobilization, EC80 acetylcholine), human M4
Settings: for IC50: M4/Gqi5/CHO-K1 cells, decrease of EC80 acetylcholine response; for Emin: human M4, % ACh maximum at 30 μM
Method: Human or rat M4 cDNA, along with the chimeric G protein Gqi5, were transfected into Chinese hamster ovary (CHO-K1) cells purchased from the American Type Culture Collection using Lipofectamine2000. M4/Gqi5/CHO cells were grown in Ham's F-12 medium containing 10% heat-inactivated fetal bovine serum (FBS), 20 mM HEPES, 500 μg/mL G418 sulfate, and 200 μg/mL Hygromycin B.
For high throughput measurement of agonist-evoked increases in intracellular calcium, CHO-K1 cells stably expressing muscarinic receptors were plated in growth medium lacking G418 and hygromycin at 15,000 cells/20 μL/well in Greiner 384-well black-walled, tissue culture (TC)-treated, clear-bottom plates (VWR). Cells were incubated overnight at 37° C. and 5% CO2. […] Compound master plates were formatted in a 10 point concentration-response curve (CRC) format (1:3 dilutions) in 100% DMSO with a starting concentration of 10 or 1 mM using a BRAVO liquid handler (Agilent). Test compound CRCs were then transferred to daughter plates (240 nL) using the Echo acoustic plate reformatter (Labcyte, Sunnyvale, CA) and then diluted into assay buffer (40 μL) to a 2× stock using a Thermo Fisher Combi (Thermo Fisher Scientific, Waltham, MA).
Calcium flux was measured using the Functional Drug Screening System (FDSS) 6000 or 7000 (Hamamatsu Corporation, Tokyo, Japan) as an increase in the fluorescent static ratio. Compounds were applied to cells (20 μL, 2×) using the automated system of the FDSS at 2 seconds into the protocol and the data were collected at 1 Hz. […] Agonist activity was analyzed as a concentration-dependent increase in calcium mobilization upon compound addition. Positive allosteric modulator activity was analyzed as a concentration-dependent increase in the EC20 acetylcholine response. Antagonist activity was analyzed as a concentration-dependent decrease in the EC80 acetylcholine response; for the purposes of the tables herein, an IC50 (inhibitory concentration 50) was calculated as a concentration-dependent decrease of the response elicited by an EC80 concentration of acetylcholine. Concentration-response curves were generated using a four-parameter logistical equation in XLFit curve fitting software (IDBS, Bridgewater, NJ) for Excel (Microsoft, Redmond, WA) or Prism (GraphPad Software, Inc., San Diego, CA) or the Dotmatics software platform (Dotmatics, Bishop's Stortford, UK).

IC50 (Table 9) | Emin (Table 9) | Human M4 Emin (Table 10) | IC50 (Table 10) | SMILES
618 nM | 6.26% | – | – | Cc1cccnc1CN1C[C@H]2C[C@H](CNc3ccc(-c4c(C)cnn4C)nn3)C[C@H]2C1 [Compound 68, N-[[(3aR,5s,6aS)-2-[(3-methyl-2-pyridyl)methyl]-3,3a,4,5,6,6a-hexahydro-1H-cyclopenta[c]pyrrol-5-yl]methyl]-6-(2,4-dimethylpyrazol-3-yl)pyridazin-3-amine]
773 nM | 4.60% | – | – | CCCC(C)CN1C[C@H]2CC(COc3ccc(-c4cc(F)ccc4Cl)nn3)C[C@H]2C1 (stereo partly drawn) [Compound 110, (3aR,6aS)-5-[[6-(2-chloro-5-fluoro-phenyl)pyridazin-3-yl]oxymethyl]-2-(2-methylpentyl)-3,3a,4,5,6,6a-hexahydro-1H-cyclopenta[c]pyrrole]
37.8 nM | 5.36% | – | – | Cc1cccnc1CN1C[C@H]2C[C@H](Nc3ccc(-c4c(C)cnn4C)nn3)C[C@H]2C1 [Compound 24, (3aR,5s,6aS)-N-[6-(2,4-dimethylpyrazol-3-yl)pyridazin-3-yl]-2-[(3-methyl-2-pyridyl)methyl]-3,3a,4,5,6,6a-hexahydro-1H-cyclopenta[c]pyrrol-5-amine]
– | – | 3% | 65 nM | Fc1ccc(Cl)c(-c2ccc(N[C@H]3C[C@@H]4CN(Cc5cnc6ccccc6c5)C[C@@H]4C3)nn2)c1 [Compound 164, (3aR,5s,6aS)-N-[6-(2-chloro-5-fluoro-phenyl)pyridazin-3-yl]-2-(3-quinolylmethyl)-3,3a,4,5,6,6a-hexahydro-1H-cyclopenta[c]pyrrol-5-amine]
– | – | 4% | 207 nM | COc1ccccc1CN1C[C@H]2C[C@H](Nc3ccc(-c4cc(F)ccc4Cl)nn3)C[C@H]2C1 [Compound 174, (3aR,5s,6aS)-N-[6-(2-chloro-5-fluoro-phenyl)pyridazin-3-yl]-2-[(2-methoxyphenyl)methyl]-3,3a,4,5,6,6a-hexahydro-1H-cyclopenta[c]pyrrol-5-amine]
– | – | 4% | 84.3 nM | CC1(CN2C[C@H]3C[C@H](Nc4ccc(-c5cc(F)ccc5Cl)nn4)C[C@H]3C2)COC1 [Compound 171, (3aR,5s,6aS)-N-[6-(2-chloro-5-fluoro-phenyl)pyridazin-3-yl]-2-[(3-methyloxetan-3-yl)methyl]-3,3a,4,5,6,6a-hexahydro-1H-cyclopenta[c]pyrrol-5-amine]
193 nM | 4.92% | – | – | Cc1cnn(C)c1-c1ccc(N[C@H]2C[C@@H]3CN(Cc4ccccc4F)C[C@@H]3C2)nn1 [Compound 25, (3aR,5s,6aS)-N-[6-(2,4-dimethylpyrazol-3-yl)pyridazin-3-yl]-2-[(2-fluorophenyl)methyl]-3,3a,4,5,6,6a-hexahydro-1H-cyclopenta[c]pyrrol-5-amine]
– | – | 3% | 5.02 nM | CC(C)CN1C[C@H]2C[C@H](Nc3ccc(-c4cc(F)ccc4Cl)nn3)C[C@H]2C1 [Compound 177, (3aR,5s,6aS)-N-[6-(2-chloro-5-fluoro-phenyl)pyridazin-3-yl]-2-isobutyl-3,3a,4,5,6,6a-hexahydro-1H-cyclopenta[c]pyrrol-5-amine]
0.6 nM | – | – | – | Cc1nn(C)cc1-c1ccc(N[C@H]2C[C@@H]3CN(Cc4ccc5c(c4)OCO5)C[C@@H]3C2)nn1 [compound 15]
3.4 nM | 6.1% | – | – | Cc1cccnc1CN1C[C@H]2C[C@H](Nc3ccc(-c4cc(F)ccc4Cl)nn3)C[C@H]2C1 [Compound 35, (3aR,5s,6aS)-N-[6-(2-chloro-5-fluoro-phenyl)pyridazin-3-yl]-2-[(3-methyl-2-pyridyl)methyl]-3,3a,4,5,6,6a-hexahydro-1H-cyclopenta[c]pyrrol-5-amine]
81.5 nM | 4.08% | – | – | Cc1cnn(C)c1-c1ccc(N[C@H]2C[C@@H]3CN(CC4CCCOC4)C[C@@H]3C2)nn1 (stereo partly drawn) [Compound 22, (3aR,5s,6aS)-N-[6-(2,4-dimethylpyrazol-3-yl)pyridazin-3-yl]-2-(tetrahydropyran-3-ylmethyl)-3,3a,4,5,6,6a-hexahydro-1H-cyclopenta[c]pyrrol-5-amine]
9.3 nM | 5.94% | – | – | Fc1ccc(Cl)c(-c2ccc(N[C@H]3C[C@@H]4CN(CC5CC6C=CC5C6)C[C@@H]4C3)nn2)c1 (stereo partly drawn) [Compound 27, (3aR,5s,6aS)-2-(5-bicyclo[2.2.1]hept-2-enylmethyl)-N-[6-(2-chloro-5-fluoro-phenyl)pyridazin-3-yl]-3,3a,4,5,6,6a-hexahydro-1H-cyclopenta[c]pyrrol-5-amine]
443 nM | 3.62% | – | – | Fc1ccc(Cl)c(-c2ccc(OCC3C[C@@H]4CN(CC5CCCCC5)C[C@@H]4C3)nn2)c1 (stereo partly drawn) [Compound 111, (3aR,6aS)-5-[[6-(2-chloro-5-fluoro-phenyl)pyridazin-3-yl]oxymethyl]-2-(cyclohexylmethyl)-3,3a,4,5,6,6a-hexahydro-1H-cyclopenta[c]pyrrole]
– | – | 3% | 161 nM | Cc1nn(C)cc1-c1ccc(N[C@H]2C[C@@H]3CN(CC45CC6CC(CC(C6)C4)C5)C[C@@H]3C2)nc1 [Compound 150, (3aR,5s,6aS)-2-(1-adamantylmethyl)-N-[5-(1,3-dimethylpyrazol-4-yl)-2-pyridyl]-3,3a,4,5,6,6a-hexahydro-1H-cyclopenta[c]pyrrol-5-amine]
14.6 nM | 6.22% | – | – | Fc1ccc(Cl)c(-c2ccc(N[C@H]3C[C@@H]4CN(Cc5ccccc5F)C[C@@H]4C3)nn2)c1 [Compound 36, (3aR,5s,6aS)-N-[6-(2-chloro-5-fluoro-phenyl)pyridazin-3-yl]-2-[(2-fluorophenyl)methyl]-3,3a,4,5,6,6a-hexahydro-1H-cyclopenta[c]pyrrol-5-amine]
– | – | 16% | 7.38 nM | CS(=O)(=O)Nc1cccc(-c2ccc(N[C@H]3C[C@@H]4CN(CC5CCOCC5)C[C@@H]4C3)nn2)c1 [Compound 217, N-[3-[6-[[(3aR,5s,6aS)-2-(tetrahydropyran-4-ylmethyl)-3,3a,4,5,6,6a-hexahydro-1H-cyclopenta[c]pyrrol-5-yl]amino]pyridazin-3-yl]phenyl]methanesulfonamide]
– | – | 6% | 40.6 nM | c1cc(N2CCCC2)nnc1N[C@H]1C[C@@H]2CN(CC3CCOCC3)C[C@@H]2C1 [Compound 192, (3aR,5s,6aS)-N-(6-pyrrolidin-1-ylpyridazin-3-yl)-2-(tetrahydropyran-4-ylmethyl)-3,3a,4,5,6,6a-hexahydro-1H-cyclopenta[c]pyrrol-5-amine]
– | – | 11% | 102 nM | c1cc(-c2ccc(N[C@H]3C[C@@H]4CN(CC5CCOCC5)C[C@@H]4C3)nn2)c[nH]1 [Compound 229, (3aR,5s,6aS)-N-[6-(1H-pyrrol-3-yl)pyridazin-3-yl]-2-(tetrahydropyran-4-ylmethyl)-3,3a,4,5,6,6a-hexahydro-1H-cyclopenta[c]pyrrol-5-amine]
329 nM | 5.63% | – | – | Cc1nn(C)cc1-c1ccc(OCC2C[C@@H]3CN(Cc4ccc5c(c4)OCO5)C[C@@H]3C2)nn1 (stereo partly drawn) [Compound 105, (3aR,6aS)-2-(1,3-benzodioxol-5-ylmethyl)-5-[[6-(1,3-dimethylpyrazol-4-yl)pyridazin-3-yl]oxymethyl]-3,3a,4,5,6,6a-hexahydro-1H-cyclopenta[c]pyrrole]
272 nM | 3.17% | – | – | Cc1nn(C)cc1-c1ccc(O[C@@H]2C[C@@H]3CN(CC4CCCCC4)C[C@@H]3C2)nn1 [Compound 49, (3aR,5r,6aS)-2-(cyclohexylmethyl)-5-[6-(1,3-dimethylpyrazol-4-yl)pyridazin-3-yl]oxy-3,3a,4,5,6,6a-hexahydro-1H-cyclopenta[c]pyrrole]
